Tests used:
[1] = target: Nluc-ELF3 / Cluc-MED23391-462 (Homo sapiens, UniProt Q9ULK4); assay: split luciferase biosensor assay; format: cell-based; conditions: dose-dependent
Protocol: The biosensor used for the assay was prepared using the In-Fusion® HD Cloning Kit with firefly (Photinus pyralis) luciferase. The luciferase enzyme was split into two fragments (Nluc and Cluc). The full-length ELF3 (wild-type) and MED23 mutants were cloned into the […] and KpnI sites, and the NotI and KpnI sites of p3Xflag-myc-CMV26, respectively. The full-length cDNA of human ELF3 (accession number NM_001114309.1) was fused to the N-terminal fragment of split luciferase (Nluc), while the […] of MED23 (accession number NM_001270521.1) was fused to the C-terminal of split luciferase (Cluc).
Bioluminescence intensity, complementarily generated by ELF3-MED23 binding, was measured using this method (FIG. 3B).

PI3 Kinase (p110a/p85a) = PI3 Kinase (p110a/p85a) (Homo sapiens, UniProt P42336); assay: kinase profiling, PI3 kinase; format: biochemical; conditions: read-out: In vitro kinase inhibitory activity (%)
Protocol: (§1) Kinase inhibitory activity of the candidate compound at 10 μM and 25 μM was assessed using Eurofins Kinase Profiling Services. Inhibitory effects on c-RAF, EGFR, ErbB2, ErbB4, and PI3 kinase were analyzed according to the Kinase Profiler Service Assay protocol.

HER2 protein = HER2 protein expression; format: cell-based; conditions: dose-dependent
Protocol: For western blot analysis, cells were seeded in a 6-well plate and lysed in 1×RIPA lysis buffer (Cell Signaling, USA) containing 1% 0.1 M [COMPOUND LEFT OUT] and 1% 100× protease inhibitor cocktail solution (Genedepot, USA). Total protein levels were standardized using the Pierce™ BCA Protein Assay Kit (Thermo Fisher Scientific, USA) and a microplate reader (Tecan Group Ltd., Switzerland). A total of 20 μg of protein was loaded onto a 10-15% SDS-PAGE acrylamide gel and transferred to a 0.2 μm PVDF membrane (Pall Life Science, USA). The membrane was blocked with 5% skim milk or 5% BSA, and the membrane was cultured with primary antibodies (purchased from Thermo Fisher, Cell Signaling, Santa Cruz, Novus, or MBL) at room temperature for 3 hours or overnight at 4 °C. The blot was washed three times with Tris-buffered saline containing 0.1% Tween20 (1×TBST) and incubated with an HRP-conjugated secondary antibody (GeneTex, USA). Protein bands were detected using ECL solution reagents (GE Healthcare, USA) and the LAS-3000 imaging system (Fuji Photo Film Co., Ltd., Japan), and captured images were analyzed using Multi-Gauge software (Fuji Photo Film Co. Ltd.). The preparation of cell lysates for subsequent analyses was performed using the same method as described for western blot analysis.

NCI-N87 cells = assay: apoptosis analysis (Annexin V, FACS); format: cell-based; conditions: dose-dependent
Protocol: Specifically, 5×10^5 NCI-N87 cells were seeded in 60 mm dishes and cultured until they reached 70-80% confluence. The cells were treated with varying concentrations of the candidate compound and cultured for 8 hours. The cells were treated with trypsin and then washed with cold PBS (pH 7.4). For cell cycle analysis, the cells were fixed with 70% ethanol and cultured at 4 °C for 30 minutes, followed by staining with FxCycle™ PI/RNase staining solution (Invitrogen™, USA). Cell cycle analysis was performed using a fluorescence-activated cell sorting (FACS) device (BD Biosciences, USA).
Cells for apoptosis analysis were prepared using the same method as described for the cell cycle analysis. The cells were treated with trypsin, washed with 1×PBS, and resuspended in each sample using the FITC Annexin V Apoptosis Detection Kit I (BD Pharmingen™). Apoptosis was analyzed using a FACS device.

MED23-IRF7 PPI = target: T1, MED23-IRF7 PPI (Homo sapiens, UniProt Q9ULK4); assay: immunoprecipitation, MED23-IRF7 PPI; format: cell-based
T1 construct: co-immunoprecipitation of IRF7, probably endogenous
Protocol: NCI-N87 cells from a gastric cancer cell line were seeded in a 100 mm cell culture dish and cultured until they reached 60-70% confluence. The cultured cells were transfected with p3Xflag-myc-CMV26-empty or p3Xflag-myc-CMV26-MED23^WT plasmids using Lipofectamine® 2000 (Invitrogen, USA). After transfection, YK1 (5 μM) was added 12 hours post-transfection, and the cells were cultured for 12 hours. A total of 750 μg of cell lysate was incubated with 20 μL of FLAG-agarose bead slurry (Sigma Aldrich, USA) on a rotator at 4 °C for 4 hours. The sample was centrifuged at 12,000 rpm for 1 minute to precipitate the beads. After removing the supernatant, the remaining beads were washed three times with 200 μL of lysis buffer (RIPA).
After removing the final supernatant, the beads were eluted by boiling with 2× sample buffer at 98 °C for 5 minutes. The immunoprecipitated proteins were loaded, separated by SDS-PAGE, and analyzed by Western blotting.

ErbB2 = ErbB2 (Homo sapiens, UniProt P04626); assay: kinase profiling, ErbB2; format: biochemical; conditions: read-out: In vitro kinase inhibitory activity (%)
Protocol: as §1

NCI-N87 xenograft = assay: NCI-N87 xenograft, tumor growth; format: in vivo, mice; conditions: 4 mg/kg, intravenous, six times at 3-day intervals
Protocol: Xenograft mice were generated to evaluate the anticancer effects of the candidate compound. NCI-N87 and JIMT-1 cells (5×10^6 cells), dissolved in 100 μL of 1× phosphate-buffered saline (PBS), were subcutaneously injected into the right flanks of 5-week-old female athymic nude mice (Envigo, USA) or 4-week-old female NOD-SCID mice (Koatech, South Korea). When the tumors reached a volume of 90-100 mm^3, the mice were randomized into designated groups. For the NCI-N87 xenograft, intravenous administration was performed six times at 3-day intervals. For the JIMT-1 xenograft, intraperitoneal administration was performed eight times at 3-day intervals. […] Tumor size changes were monitored until the mean tumor size in the control group reached 2,000-2,500 mm^3. On day 28 for the NCI-N87 xenograft and day 46 for the JIMT-1 xenograft, the mice were sacrificed, and tumors were excised to determine relative tumor sizes. Tumor length (L) and width (W) were measured with calipers, and tumor volume was calculated using the formula: […]

PI3 Kinase (p110a/p85a), sequence (P42336 whole entry): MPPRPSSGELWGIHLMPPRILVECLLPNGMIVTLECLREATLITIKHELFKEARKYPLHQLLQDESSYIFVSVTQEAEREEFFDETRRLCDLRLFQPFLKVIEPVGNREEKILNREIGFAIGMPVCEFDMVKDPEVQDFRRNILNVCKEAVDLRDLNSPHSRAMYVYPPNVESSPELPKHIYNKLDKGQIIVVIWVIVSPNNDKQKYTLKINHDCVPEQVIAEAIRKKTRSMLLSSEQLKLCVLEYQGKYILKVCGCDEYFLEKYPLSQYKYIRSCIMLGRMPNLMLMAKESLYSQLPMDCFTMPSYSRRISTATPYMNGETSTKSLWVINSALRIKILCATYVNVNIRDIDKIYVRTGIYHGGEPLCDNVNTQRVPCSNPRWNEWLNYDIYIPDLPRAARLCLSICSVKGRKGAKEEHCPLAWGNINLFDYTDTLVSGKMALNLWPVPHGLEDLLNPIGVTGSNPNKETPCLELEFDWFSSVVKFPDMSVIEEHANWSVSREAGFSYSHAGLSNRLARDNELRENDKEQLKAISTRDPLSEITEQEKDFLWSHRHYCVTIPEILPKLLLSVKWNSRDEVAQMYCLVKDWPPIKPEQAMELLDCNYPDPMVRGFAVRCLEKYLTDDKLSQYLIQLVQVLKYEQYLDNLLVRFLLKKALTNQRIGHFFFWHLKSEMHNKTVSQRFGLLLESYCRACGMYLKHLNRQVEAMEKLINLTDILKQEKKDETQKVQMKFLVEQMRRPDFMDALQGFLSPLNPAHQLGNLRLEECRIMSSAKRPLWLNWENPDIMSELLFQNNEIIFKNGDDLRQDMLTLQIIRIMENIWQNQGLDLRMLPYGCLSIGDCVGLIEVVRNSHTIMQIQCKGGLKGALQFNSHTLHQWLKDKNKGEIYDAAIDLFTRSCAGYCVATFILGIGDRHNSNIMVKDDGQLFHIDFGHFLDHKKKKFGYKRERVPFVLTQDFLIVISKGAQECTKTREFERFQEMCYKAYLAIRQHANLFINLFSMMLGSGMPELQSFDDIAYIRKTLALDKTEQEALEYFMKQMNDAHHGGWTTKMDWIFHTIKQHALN
PI3 Kinase (p110a/p85a), sequence (P27986 whole entry partner): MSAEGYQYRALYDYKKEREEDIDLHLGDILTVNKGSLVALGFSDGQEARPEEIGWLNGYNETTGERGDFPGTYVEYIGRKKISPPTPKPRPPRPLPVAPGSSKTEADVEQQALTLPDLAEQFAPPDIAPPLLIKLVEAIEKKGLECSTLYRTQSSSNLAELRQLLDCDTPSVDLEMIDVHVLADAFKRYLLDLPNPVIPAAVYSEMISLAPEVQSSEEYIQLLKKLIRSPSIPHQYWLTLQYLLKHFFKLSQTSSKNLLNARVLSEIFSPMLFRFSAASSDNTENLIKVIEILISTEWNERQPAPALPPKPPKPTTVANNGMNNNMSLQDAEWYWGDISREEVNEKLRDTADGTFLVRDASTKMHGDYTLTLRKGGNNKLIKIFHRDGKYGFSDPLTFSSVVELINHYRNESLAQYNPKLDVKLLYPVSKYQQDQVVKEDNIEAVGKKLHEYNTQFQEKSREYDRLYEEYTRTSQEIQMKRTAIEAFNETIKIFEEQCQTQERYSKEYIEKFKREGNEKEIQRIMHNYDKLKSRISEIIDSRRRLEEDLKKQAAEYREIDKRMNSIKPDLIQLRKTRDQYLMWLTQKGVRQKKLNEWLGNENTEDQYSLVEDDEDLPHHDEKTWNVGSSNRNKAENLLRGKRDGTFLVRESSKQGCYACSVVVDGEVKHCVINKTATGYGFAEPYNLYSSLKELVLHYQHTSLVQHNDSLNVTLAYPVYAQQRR
ErbB2, sequence (P04626 676-1255 limits assumed): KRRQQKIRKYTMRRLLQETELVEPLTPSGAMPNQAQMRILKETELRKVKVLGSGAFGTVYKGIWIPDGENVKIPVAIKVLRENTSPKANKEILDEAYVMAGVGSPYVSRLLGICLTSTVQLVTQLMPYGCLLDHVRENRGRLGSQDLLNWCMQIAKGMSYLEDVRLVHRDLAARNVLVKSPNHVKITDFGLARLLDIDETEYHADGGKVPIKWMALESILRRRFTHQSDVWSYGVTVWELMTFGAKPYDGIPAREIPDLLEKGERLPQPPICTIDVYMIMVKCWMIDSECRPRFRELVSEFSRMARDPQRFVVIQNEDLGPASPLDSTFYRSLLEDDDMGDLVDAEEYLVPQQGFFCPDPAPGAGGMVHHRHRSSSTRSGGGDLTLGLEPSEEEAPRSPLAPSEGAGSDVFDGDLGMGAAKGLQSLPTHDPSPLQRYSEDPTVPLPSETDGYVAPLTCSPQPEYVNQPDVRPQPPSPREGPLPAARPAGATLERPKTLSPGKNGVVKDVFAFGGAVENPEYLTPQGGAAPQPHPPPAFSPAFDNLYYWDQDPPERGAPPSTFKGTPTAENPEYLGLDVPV
T1 sequence (Q9ULK4 whole entry): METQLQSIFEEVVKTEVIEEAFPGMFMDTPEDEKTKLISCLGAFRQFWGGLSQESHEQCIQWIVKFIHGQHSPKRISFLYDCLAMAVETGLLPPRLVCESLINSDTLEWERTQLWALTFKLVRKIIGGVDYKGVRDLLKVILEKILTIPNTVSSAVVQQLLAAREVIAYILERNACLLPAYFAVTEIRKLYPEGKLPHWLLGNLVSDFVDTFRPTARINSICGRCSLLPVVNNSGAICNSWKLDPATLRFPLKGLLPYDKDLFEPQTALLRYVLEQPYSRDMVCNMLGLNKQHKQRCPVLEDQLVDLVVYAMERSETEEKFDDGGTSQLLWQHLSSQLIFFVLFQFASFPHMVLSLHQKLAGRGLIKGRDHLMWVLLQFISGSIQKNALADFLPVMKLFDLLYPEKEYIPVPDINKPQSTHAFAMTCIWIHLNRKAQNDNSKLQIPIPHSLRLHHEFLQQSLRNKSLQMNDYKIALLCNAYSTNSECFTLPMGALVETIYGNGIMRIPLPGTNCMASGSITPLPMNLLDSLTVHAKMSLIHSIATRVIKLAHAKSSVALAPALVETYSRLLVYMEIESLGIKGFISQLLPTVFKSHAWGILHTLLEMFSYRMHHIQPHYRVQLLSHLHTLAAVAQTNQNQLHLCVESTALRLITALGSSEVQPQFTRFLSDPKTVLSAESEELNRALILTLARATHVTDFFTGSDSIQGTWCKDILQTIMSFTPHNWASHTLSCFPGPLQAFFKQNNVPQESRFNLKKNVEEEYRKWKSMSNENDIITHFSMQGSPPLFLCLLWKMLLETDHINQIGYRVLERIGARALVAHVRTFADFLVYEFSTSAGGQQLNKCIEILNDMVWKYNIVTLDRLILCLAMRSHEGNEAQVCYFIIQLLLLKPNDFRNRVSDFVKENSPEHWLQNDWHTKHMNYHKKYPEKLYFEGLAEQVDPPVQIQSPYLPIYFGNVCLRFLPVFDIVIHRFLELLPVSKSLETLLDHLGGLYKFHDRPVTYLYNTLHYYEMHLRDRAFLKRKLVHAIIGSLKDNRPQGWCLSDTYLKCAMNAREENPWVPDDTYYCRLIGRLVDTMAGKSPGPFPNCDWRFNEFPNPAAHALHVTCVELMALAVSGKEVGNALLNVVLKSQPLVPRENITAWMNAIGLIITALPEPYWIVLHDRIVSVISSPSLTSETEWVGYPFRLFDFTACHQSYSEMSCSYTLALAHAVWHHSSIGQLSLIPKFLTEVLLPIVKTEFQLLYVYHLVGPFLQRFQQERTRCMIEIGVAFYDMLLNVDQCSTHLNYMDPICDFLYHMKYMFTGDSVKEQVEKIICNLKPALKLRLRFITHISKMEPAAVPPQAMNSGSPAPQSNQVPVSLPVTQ
Nluc-ELF3 / Cluc-MED23391-462, sequence (Q9ULK4 391-462): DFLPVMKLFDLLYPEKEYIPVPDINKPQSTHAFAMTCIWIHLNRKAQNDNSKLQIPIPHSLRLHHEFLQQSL

CC(=O)N1N=C(c2cccc(O)c2)CC1c1ccc(Cl)cc1 (stereo not drawn) [Compound 15, 1-[5-(4-Chlorophenyl)-3-(3-hydroxyphenyl)-4,5-dihydropyrazol-1-yl]-ethanone]
luciferase activity [1]: dose-dependently and significantly reduced
inhibition at 10 µM (PI3 Kinase (p110a/p85a); 10 μM): 3%
inhibition at 25 µM (PI3 Kinase (p110a/p85a); 25 μM): 17%
HER2 protein expression level (HER2 protein): significantly downregulate HER2 gene and protein expression levels in a dose-dependent manner
apoptosis (NCI-N87 cells): significantly promoted apoptosis in a dose-dependent manner
PPI inhibitory effect on MED23-IRF7 (MED23-IRF7 PPI): did not inhibit these PPIs
inhibition at 10 µM (ErbB2; ErbB2, 10 μM): 2%
inhibition at 25 µM (ErbB2; ErbB2, 25 μM): 0%
tumor volume / growth (NCI-N87 xenograft): tumor volume was significantly reduced, and tumor growth was delayed
